Consider 24 compounds from patent US20230399312A1, “SUBSTITUTED PYRIMIDINES AND METHODS OF USE” (THERAVANCE BIOPHARMA R&D IP, LLC, priority 2020, published 2023).

The target in assay [1] is T1, recombinant human ALK5 (TGF-βR1) protein (Homo sapiens, UniProt P36897).
T1 construct: purchased Life Technologies PR9075A
T1 sequence (P36897 34-503): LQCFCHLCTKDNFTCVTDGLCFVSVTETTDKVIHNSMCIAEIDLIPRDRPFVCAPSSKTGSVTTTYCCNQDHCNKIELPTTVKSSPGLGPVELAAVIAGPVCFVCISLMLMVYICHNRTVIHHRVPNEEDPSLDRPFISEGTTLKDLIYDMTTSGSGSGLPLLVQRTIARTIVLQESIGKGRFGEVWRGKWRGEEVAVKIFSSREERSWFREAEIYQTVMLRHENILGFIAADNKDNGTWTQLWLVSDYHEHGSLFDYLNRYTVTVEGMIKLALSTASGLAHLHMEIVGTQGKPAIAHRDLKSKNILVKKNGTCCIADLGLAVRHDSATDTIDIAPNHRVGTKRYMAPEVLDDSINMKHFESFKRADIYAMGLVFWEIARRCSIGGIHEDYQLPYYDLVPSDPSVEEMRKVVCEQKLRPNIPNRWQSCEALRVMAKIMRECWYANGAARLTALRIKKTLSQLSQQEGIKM
The experiment in a line: Biochemical ALK5 (TGF-βR1) assay to measure pKi (LANCE Ultra ULight kinase assay). The following applies: apparent pKi, converted from pIC50 by Cheng-Prusoff. Put shortly:
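Enzyme was preincubated with compound for 60 min at room temperature, then ATP (added from a 125 μM 5× stock with 2 mM DTT) started a 60 min reaction at 37 °C. EDTA plus Eu-anti-phospho-Topo2α (Thr1342) antibody stopped it; TR-FRET pIC50 values were converted to pKi by Cheng-Prusoff.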
A general note: In TR-FRET formats the signal depends on donor and acceptor labels being close together.

Assay [2] deals with TGF-β-stimulated SMAD3 phosphorylation in BEAS-2B cells. The experiment in a line: Cellular ALK5 potency assay, inhibition of TGF-β stimulated pSMAD3 formation in BEAS-2B cells. The note with it: Homo sapiens, pSMAD3, TGF-β 10 ng/mL, read-out: BEAS2B pIC50 (converted). The format is cell-based. The procedure, abridged:
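BEAS-2B cells, HBSS/25 mM HEPES/1% BSA buffer; cpd 1 h, 37 °C; TGF-β 10 ng/mL final, 30 min; lysis, AlphaLISA pSMAD3 read next day. pIC50 vs stimulated no-compound baseline.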

Consider `Cc1cccc(-c2nccc(Nc3ccnc(Nc4ccc(-c5cnn(CCN(C)C)c5)cc4)n3)n2)n1` [Compound 356, N2-[4-[1-[2-(dimethylamino)ethyl]pyrazol-4-yl]phenyl]-N4-[2-(6-methyl-2-pyridyl)pyrimidin-4-yl]pyrimidine-2,4-diamine], for which the Ki in assay [1] was 0.0398 to 0.316 nM. In addition, the IC50 in assay [2] is 25.1 to 158 nM.

As for `Cc1cccc(-c2nccc(Nc3ccnc(Nc4cccc(NC(=O)C5CCN(C6CCOCC6)CC5)c4)n3)n2)n1` [Compound 357, N-[3-[[4-[[2-(6-methyl-2-pyridyl)pyrimidin-4-yl]amino]pyrimidin-2-yl]amino]phenyl]-1-tetrahydropyran-4-yl-piperidine-4-carboxamide], the Ki in assay [1] was 0.0398 to 0.316 nM. Besides, in assay [2], the IC50 is 25.1 to 158 nM.

In the case of `Cc1cccc(-c2nccc(Nc3ccnc(Nc4ccc(C5=CCC(NC(C)C)CC5)cc4)n3)n2)n1` (stereo not drawn) [Compound 358, N2-[4-[4-(isopropylamino)cyclohexen-1-yl]phenyl]-N4-[2-(6-methyl-2-pyridyl)pyrimidin-4-yl]pyrimidine-2,4-diamine], the Ki in assay [1] was 0.0398 to 0.316 nM. Further, the IC50 in assay [2] was 200 to 1260 nM.

Regarding `Cc1cccc(-c2nccc(Nc3ccnc(Nc4ccc(CN5CCNCC5)cc4)n3)n2)n1` [Compound 359, N4-[2-(6-methyl-2-pyridyl)pyrimidin-4-yl]-N2-[4-(piperazin-1-ylmethyl)phenyl]pyrimidine-2,4-diamine], the Ki in assay [1] is 0.0398 to 0.316 nM. Moreover, in assay [2], the IC50 is 25.1 to 158 nM.

With `Cc1cccc(-c2nccc(Nc3ccnc(Nc4ccc(C)c(CN5CCSCC5)c4)n3)n2)n1` [Compound 361, N4-[2-(6-methyl-2-pyridyl)pyrimidin-4-yl]-N2-[4-methyl-3-(thiomorpholinomethyl)phenyl] pyrimidine-2,4-diamine], in assay [1], the Ki was 0.0398 to 0.316 nM. Also, the IC50 in assay [2] is 25.1 to 158 nM.

Consider `Cc1cccc(-c2nccc(Nc3ccnc(Nc4cccc(CN5CCNCC5)c4)n3)n2)n1` [Compound 362, N4-[2-(6-methyl-2-pyridyl)pyrimidin-4-yl]-N2-[3-(piperazin-1-ylmethyl)phenyl]pyrimidine-2,4-diamine], for which the Ki in assay [1] is 0.0398 to 0.316 nM. In addition, in assay [2], the IC50 was 25.1 to 158 nM.

As to `Cc1cccc(-c2nccc(Nc3ccnc(Nc4ccc(NS(=O)(=O)CCN)cc4)n3)n2)n1` [Compound 363, 2-amino-N-[4-[[4-[[2-(6-methyl-2-pyridyl)pyrimidin-4-yl]amino]pyrimidin-2-yl]amino]phenyl] ethanesulfonamide], the Ki in assay [1] was 0.398 to 3.16 nM. Moreover, the IC50 in assay [2] is 200 to 1260 nM.

As for `Cc1cccc(-c2nccc(Nc3ccnc(Nc4csc(NC(=O)C5CCNC5)c4)n3)n2)n1` (stereo not drawn) [Compound 364, N-[4-[[4-[[2-(6-methyl-2-pyridyl)pyrimidin-4-yl]amino]pyrimidin-2-yl]amino]-2-thienyl]pyrrolidine-3-carboxamide], the Ki in assay [1] is not above 0.0316 nM. Also, in assay [2], the IC50 is not above 20 nM.

On to `Cc1cccc(-c2nccc(Nc3ccnc(Nc4ccc(N5CCN(C6CCOC6=O)CC5)cc4)n3)n2)n1` (stereo not drawn) [Compound 365, 3-[4-[4-[[4-[[2-(6-methyl-2-pyridyl)pyrimidin-4-yl]amino]pyrimidin-2-yl]amino]phenyl]piperazin-1-yl]tetrahydrofuran-2-one], for which, in assay [1], the Ki was 0.0398 to 0.316 nM. The IC50 in assay [2] was not above 20 nM.

For `Cc1cccc(-c2nccc(Nc3ccnc(Nc4ccc(CN5CCOCC5)cc4)n3)n2)n1` [Compound 366, N4-[2-(6-methyl-2-pyridyl)pyrimidin-4-yl]-N2-[4-(morpholinomethyl)phenyl] pyrimidine-2,4-diamine], the Ki in assay [1] is 0.0398 to 0.316 nM. Also, in assay [2], the IC50 was 25.1 to 158 nM.

`CNC(=O)[C@@H]1CN(c2ccc(Nc3nccc(Nc4ccnc(-c5cccc(C)n5)n4)n3)cc2)CCN1` [Compound 367, (2S)-N-methyl-4-[4-[[4-[[2-(6-methyl-2-pyridyl)pyrimidin-4-yl]amino]pyrimidin-2-yl]amino]phenyl]piperazine-2-carboxamide]: the Ki in assay [1] is 0.0398 to 0.316 nM. The IC50 in assay [2] was 25.1 to 158 nM.

Turning to `Cc1cccc(-c2nccc(Nc3ccnc(Nc4ccc(N5CCC(C(=O)OCC6CNC6)CC5)cc4)n3)n2)n1` [Compound 368, azetidin-3-ylmethyl 1-[4-[[4-[[2-(6-methyl-2-pyridyl)pyrimidin-4-yl]amino]pyrimidin-2-yl]amino]phenyl]piperidine-4-carboxylate], the Ki in assay [1] was 0.0398 to 0.316 nM. Besides, the IC50 in assay [2] is 25.1 to 158 nM.

As for `COC(=O)C1CN(CCNc2ccc(Nc3nccc(Nc4ccnc(-c5cccc(C)n5)n4)n3)cc2)CCN1` (stereo not drawn) [Compound 369, methyl 4-[2-[4-[[4-[[2-(6-methyl-2-pyridyl)pyrimidin-4-yl]amino]pyrimidin-2-yl]amino]anilino]ethyl] piperazine-2-carboxylate], the Ki in assay [1] is 0.398 to 3.16 nM. For the same compound, the IC50 in assay [2] was 25.1 to 158 nM.

On to `Cc1cccc(-c2nccc(Nc3ccnc(Nc4ccc(CN5CCN(C(C)C)CC5)cc4)n3)n2)n1` [Compound 370, N2-[4-[(4-isopropylpiperazin-1-yl)methyl]phenyl]-N4-[2-(6-methyl-2-pyridyl)pyrimidin-4-yl]pyrimidine-2,4-diamine], for which the Ki in assay [1] is 0.0398 to 0.316 nM. In addition, the IC50 in assay [2] is 25.1 to 158 nM.

For `Cc1cccc(-c2nccc(Nc3ccnc(Nc4ccc(NS(=O)(=O)N(C)C)cc4)n3)n2)n1` [Compound 371, 4-[[2-[4-(dimethylsulfamoylamino)anilino]pyrimidin-4-yl]amino]-2-(6-methyl-2-pyridyl)pyrimidine], the Ki in assay [1] was 0.398 to 3.16 nM. Further, the IC50 in assay [2] is 25.1 to 158 nM.

`Cc1cccc(-c2nccc(Nc3ccnc(Nc4ccc(CN5CC6(CCOC6)C5)cc4)n3)n2)n1` [Compound 372, N4-[2-(6-methyl-2-pyridyl)pyrimidin-4-yl]-N2-[4-(6-oxa-2-azaspiro[3.4]octan-2-ylmethyl)phenyl]pyrimidine-2,4-diamine]: the Ki in assay [1] was 0.0398 to 0.316 nM. Also, the IC50 in assay [2] is 25.1 to 158 nM.

In the case of `Cc1cccc(-c2nccc(Nc3ccnc(Nc4cnn(C5CCCNC5)c4)n3)n2)n1` (stereo not drawn) [Compound 373, N4-[2-(6-methyl-2-pyridyl)pyrimidin-4-yl]-N2-[1-(3-piperidyl)pyrazol-4-yl]pyrimidine-2,4-diamine], in assay [1], the Ki was not above 0.0316 nM. In addition, in assay [2], the IC50 is 200 to 1260 nM.

For `Cc1cccc(-c2nccc(Nc3ccnc(Nc4ccc(C5CCCNC5)cc4)n3)n2)n1` (stereo not drawn) [Compound 374, N4-[2-(6-methyl-2-pyridyl)pyrimidin-4-yl]-N2-[4-(3-piperidyl)phenyl]pyrimidine-2,4-diamine], in assay [1], the Ki was 0.0398 to 0.316 nM. Besides, in assay [2], the IC50 is 25.1 to 158 nM.

In the case of `Cc1cccc(-c2nccc(Nc3ccnc(Nc4ccc(CN5C[C@@H]6C[C@H]5CN6)cc4)n3)n2)n1` [Compound 375, N2-[4-[[(1S,4S)-2,5-diazabicyclo[2.2.1]heptan-2-yl]methyl]phenyl]-N4-[2-(6-methyl-2-pyridyl)pyrimidin-4-yl]pyrimidine-2,4-diamine], the Ki in assay [1] is 0.0398 to 0.316 nM. In addition, the IC50 in assay [2] is 25.1 to 158 nM.

Consider `Cc1cccc(-c2nccc(Nc3ccnc(Nc4ccc(CN5C[C@H](C)NC[C@H]5C)cc4)n3)n2)n1` [Compound 376, N2-[4-[[(2R,5S)-2,5-dimethylpiperazin-1-yl]methyl]phenyl]-N4-[2-(6-methyl-2-pyridyl)pyrimidin-4-yl]pyrimidine-2,4-diamine], for which the Ki in assay [1] is 0.0398 to 0.316 nM. Besides, the IC50 in assay [2] was 25.1 to 158 nM.

Take `Cc1cccc(-c2nccc(Nc3ccnc(Nc4ccc(CN5CCCNCC5)cc4)n3)n2)n1` [Compound 377, N2-[4-(1,4-diazepan-1-ylmethyl)phenyl]-N4-[2-(6-methyl-2-pyridyl)pyrimidin-4-yl]pyrimidine-2,4-diamine]: the Ki in assay [1] was 0.0398 to 0.316 nM. Besides, in assay [2], the IC50 is 25.1 to 158 nM.

For `Cc1cccc(-c2nccc(Nc3ccnc(Nc4csc(C(=O)NCC5(CO)CNC5)c4)n3)n2)n1` [Compound 378, N-[[3-(hydroxymethyl)azetidin-3-yl]methyl]-4-[[4-[[2-(6-methyl-2-pyridyl)pyrimidin-4-yl]amino]pyrimidin-2-yl]amino]thiophene-2-carboxamide], the Ki in assay [1] was not above 0.0316 nM. The IC50 in assay [2] is 25.1 to 158 nM.

For the compound `CNC1CCN(c2ccc(Nc3nccc(Nc4ccnc(-c5cc(O)ccc5C)n4)n3)cc2)CC1` [Compound 379, 4-methyl-3-[4-[[2-[4-[4-(methylamino)-1-piperidyl]anilino]pyrimidin-4-yl]amino]pyrimidin-2-yl]phenol], the Ki in assay [1] was 0.398 to 3.16 nM. Also, in assay [2], the IC50 is 200 to 1260 nM.

On to `Cc1cccc(-c2nccc(Nc3ccnc(Nc4ccc(N5CCN(CC6CNC6)CC5)cc4)n3)n2)n1` [Compound 380, N2-[4-[4-(azetidin-3-ylmethyl)piperazin-1-yl]phenyl]-N4-[2-(6-methyl-2-pyridyl)pyrimidin-4-yl]pyrimidine-2,4-diamine], for which the Ki in assay [1] was 0.0398 to 0.316 nM. Besides, the IC50 in assay [2] was 25.1 to 158 nM.
